The source of these data is patent publication US9802899B2, “Heterocyclic compounds as pesticides” (BAYER CROPSCIENCE AG, priority 2012, dated 2017).

Molecules are shown by their SMILES.

One series is described as follows: Determination of the log P values by HPLC (formic acid method). It is filed as physicochemical. Conditions: reversed-phase HPLC column (C 18), reversed-phase column (C 18), acidic range (pH 3.4), 55° C. The protocol: 1) Description of Method for Determination of the Log P Values (Formic Acid Method)
Eluents for determination in the acidic range (pH 3.4):
Eluent A: acetonitrile+1 ml of formic acid/liter. Eluent B: water+0.9 ml of formic acid/liter.
The lambda max values were determined in the maxima of the chromatographic signals using the UV spectra from 200 nm to 400 nm.
By chromatographic logP is commonly meant lipophilicity estimated from chromatographic retention. Read a high chromatographic logP as higher lipophilicity. As to `N#Cc1ccc(Cl)nc1-n1ccc(NC(=O)c2ccccc2C(F)(F)F)n1` [Compound I-1-607, N-[1-(6-Chloro-3-cyanopyridin-2-yl)-1H-pyrazol-3-yl]-2-(trifluoromethyl)benzamide], the chromatographic logP came out at 3.14. As for `O=C(Nc1cc[nH]n1)c1ccccc1C(F)(F)F` [N-(1H-Pyrazol-3-yl)-2-(trifluoromethyl)benzamide], the chromatographic logP was found to be 1.33.

With `O=C(Nc1nn(-c2ccccc2Cl)cc1F)c1ccccc1Cl` [Compound I-1-27, 2-Chloro-N-[1-(2-chlorophenyl)-4-fluoro-1H-pyrazol-3-yl]benzamide], the chromatographic logP worked out at 2.7. In turn, `O=C(Nc1ccn(-c2nccnc2F)n1)c1ccccc1Cl` [Compound I-1-174, 2-Chloro-N-[1-(3-fluoropyrazin-2-yl)-1H-pyrazol-3-yl]benzamide] registered a chromatographic logP of 2.03. `O=C(Nc1nn(-c2ncc(F)cc2F)c2ccc(F)cc12)c1ccccc1C(F)(F)F` [Compound I-5-2, N-[1-(3,5-Difluoropyridin-2-yl)-5-fluoro-1H-indazol-3-yl]-2-(trifluoromethyl)benzamide] yielded a chromatographic logP of 3.37.

For the compound `Nc1cc(F)c(-n2ccc(NC(=O)c3ccccc3C(=O)O)n2)c(F)c1` [Compound I-1-643, 2-{[1-(4-Amino-2,6-difluorophenyl)-1H-pyrazol-3-yl]carbamoyl}benzoic acid], the chromatographic logP came out at 1.38.

Staying with this series, now noted: reversed-phase column (C 18), acidic range (pH 3.4), 55° C.
The log P is the decadic logarithm of the partition coefficient of the neutral form, usually between octanol and water. Read a low log P as a more hydrophilic compound. Regarding `O=C(Nc1ccn(-c2cc(F)c(F)cc2F)n1)c1ccccc1Cl` [Compound I-1-195], the “log P” value turned out to be 3.94. Turning to `O=C(Nc1ccn(-c2ncc(F)cc2F)n1)c1ncccc1C(F)(F)F` [Compound I-1-502], the log partition coefficient (log P) was determined as 2.38. `O=C(Nc1ccn(-c2ncc(F)cn2)n1)c1ccccc1Br` [Compound I-1-603]: the lipophilicity (log P) is 1.94. Still for that read-out and setting: under `O=C(Nc1ccn(-c2c(F)cccc2F)n1)c1c(Cl)cccc1Cl` [Compound I-1-267] stands 2.72; under `N#Cc1c(F)cccc1-n1ccc(NC(=O)c2c(F)cccc2F)n1` [Compound I-1-619], 2.45; under `O=C(Nc1ccn(-c2ncc(F)cc2F)n1)c1ccccc1Cl` [Compound I-1-143], 2.32. As for `O=C(Nc1nn(-c2ccccc2Cl)cc1Br)c1ccccc1I` [Compound I-1-366], the lipophilicity (log P) was 3.12. For `N#Cc1cc(F)c(-n2nc(NC(=O)c3c(F)cccc3F)c3c(F)cccc32)cc1F` [Compound I-5-11], the “log P” value was 2.99. The log P values of the last two compounds are within 0.2 log units of each other. The same measure, in the same setting: under `Cn1nc(C(F)(F)F)c(C#N)c1C(=O)Nc1ccn(-c2c(F)cccc2F)n1` [Compound I-1-318] stands 2.98; under `O=C(Nc1cnn(-c2ncc(F)cc2F)n1)c1cccnc1Br` [Compound I-2-69], 1.71; under `O=C(Nc1ccn(-c2c(F)cccc2F)n1)c1snnc1C1CC1` [Compound I-1-319], 2.68.

Regarding `CS(=O)(=O)c1ccccc1-n1ccc(NC(=O)c2ccccc2C(F)(F)F)n1` [Compound I-1-179], the lipophilicity (log P) was 2.13. With `Cc1nn(C)c(C)c1C(=O)Nc1ccn(-c2ncc(F)cc2F)n1` [Compound I-1-445], the “log P” value was 1.60.

For `Cc1cn(-c2ccccc2Cl)nc1NC(=O)c1ccccc1Cl` [Compound I-1-360], the “log P” value is 2.80.

Regarding `O=C(Nc1ccn(-c2ccccc2Br)n1)c1ccccc1Br` [Compound I-1-52], the lipophilicity (log P) was 2.86. This log P and that of the compound before are within 0.2 log units of each other.

As to `O=C(Nc1ccn(-c2c(F)cccc2F)n1)c1ccccc1SC(F)(F)F` [Compound I-1-88], the “log P” value is listed as 3.15. Still for that read-out and setting: next, `Cn1ccc([N+](=O)[O-])c1C(=O)Nc1ccn(-c2ncc(F)cc2F)n1` [Compound I-1-452]: 2.27; `Cc1nn(C)c(C(=O)Nc2ccn(-c3ncc(F)cc3F)n2)c1[N+](=O)[O-]` [Compound I-1-447]: 2.03; `O=C(Nc1ccn(-c2ncc(F)cn2)n1)c1ccccc1C(F)(F)F` [Compound I-1-600]: 2.13. As for `COc1cccc(Cl)c1C(=O)Nc1ccn(-c2c(F)cccc2F)n1` [Compound I-1-271], the “log P” value is 2.47.

Take `O=C(NC1=NN(c2c(F)cccc2F)CC1)c1ccccc1Cl` [Compound I-4-1]: the log partition coefficient (log P) is reported as 2.75. Turning to `O=C(Nc1ccn(-c2ncc(F)cc2F)n1)c1cnccc1C(F)(F)F` [Compound I-1-515], the “log P” value was determined as 2.00. Still for that read-out and setting: next, `O=C(Nc1ccn(-c2ccccc2Cl)n1)c1ccccc1F` [Compound I-1-19]: 2.89; `O=C(Nc1nn(-c2ccccc2Br)nc1Cl)c1ccccc1Cl` [Compound I-2-29]: 3.09. The same measure, in the same setting: under `Cn1ncc(Cl)c1C(=O)Nc1ccn(-c2ncc(F)cc2F)n1` [Compound I-1-529] stands 2.23. `O=C(Nc1ccn(-c2c(F)cccc2F)n1)c1ccc(F)cc1C(F)(F)F` [Compound I-1-322]: the “log P” value is recorded as 2.80. On the same count and under the same terms, next, `O=C(Nc1cnn(-c2ncc(F)cc2F)n1)c1ccccc1C(F)(F)F` [Compound I-2-66]: 2.43; `Cc1cc(NC(=O)c2c(F)cccc2F)nn1-c1ccc(F)cc1F` [Compound I-1-206]: 3.42; `CC(=O)Nc1ccccc1C(=O)Nc1ccn(-c2c(F)cccc2F)n1` [Compound I-1-269]: 2.20. `Cn1ncc(Br)c1C(=O)Nc1ccn(-c2ncc(F)cc2F)n1` [Compound I-1-521]: the “log P” value is given as 2.23. This log P and that of the compound before are within 0.2 log units of each other.

In the case of `O=C(Nc1ccn(-c2ccccc2Cl)n1)c1ccsc1I` [Compound I-1-47], the “log P” value was 3.05. In the case of `Cn1nc(C(F)(F)C(F)(F)F)c(C(F)(F)F)c1C(=O)Nc1ccn(-c2c(F)cccc2F)n1` [Compound I-1-237], the “log P” value was 3.84.

As to `Cc1cn(-c2ccccc2Cl)nc1NC(=O)c1ccccc1C(F)(F)F` [Compound I-1-345], the “log P” value is reported as 3.01. The same measure, in the same setting: under `O=C(Nc1ccn(-c2ncc(F)cc2F)n1)c1cccnc1I` [Compound I-1-495] stands 1.79; under `O=C(Nc1nn(-c2ccccc2Cl)nc1Cl)c1ccccc1C(F)(F)F` [Compound I-2-19], 3.21; under `O=C(Nc1ccn(-c2cccc(F)c2F)n1)c1ncccc1C(F)(F)F` [Compound I-1-68], 3.29. Same read-out and setting: under `Cc1nn(C(F)F)c(C(=O)Nc2ccn(-c3ncc(F)cc3F)n2)c1Cl` [Compound I-1-525] stands 2.84; under `O=C(Nc1ccn(-c2ncccc2C(F)(F)F)n1)c1c(F)cccc1F` [Compound I-1-423], 2.46. In the case of `N#Cc1ccccc1-n1ccc(NC(=O)c2ccccc2I)n1` [Compound I-1-394], the log partition coefficient (log P) was 2.53. As for `O=C(Nc1cnn(-c2ncccc2F)n1)c1ccsc1I` [Compound I-2-50], the lipophilicity (log P) is 2.20. As for `O=C(Nc1ccn(-c2c(F)cccc2F)n1)c1ccccc1C1CC1` [Compound I-1-273], the log partition coefficient (log P) is 2.89.

As to `O=C(Nc1ccn(-c2ccccn2)n1)c1ccccc1Cl` [Compound I-1-420], the “log P” value is listed as 2.33. As to `O=C(Nc1ccn(-c2ccccc2C(F)(F)F)n1)c1ccccc1C(F)(F)F` [Compound I-1-6], the “log P” value is 2.75. For `CC(C)Cn1ncc(I)c1C(=O)Nc1ccn(-c2ncc(F)cc2F)n1` [Compound I-1-539], the “log P” value came to 3.28. On the same count and under the same terms, next, `O=C(Nc1ccn(-c2ncc(Cl)cc2F)n1)c1ccccc1C(F)(F)F` [Compound I-1-587]: 2.91; `O=C(Nc1ccn(-c2cccc(F)c2F)n1)c1ccccc1Cl` [Compound I-1-66]: 3.02. In the case of `CCCn1ncc(I)c1C(=O)Nc1ccn(-c2c(F)cccc2F)n1` [Compound I-1-325], the “log P” value is reported as 3.11. The log P values of the last two compounds are within 0.2 log units of each other. As to `O=C(Nc1ccn(-c2ncccc2F)n1)c1c(F)cccc1C(F)(F)F` [Compound I-1-580], the lipophilicity (log P) was found to be 2.36. For the compound `Cc1c(F)cnc(F)c1-n1ccc(NC(=O)c2ccccc2C(F)(F)F)n1` [Compound I-1-217], the lipophilicity (log P) came out at 3.06.

Take `Cn1cnc(C(=O)Nc2ccn(-c3ncc(F)cc3F)n2)c1[N+](=O)[O-]` [Compound I-1-454]: the “log P” value was found to be 1.58.

Take `Cn1nc(C(F)F)c(C(=O)Nc2ccn(-c3ccccc3Cl)n2)c1F` [Compound I-1-49]: the lipophilicity (log P) turned out to be 2.59. As to `O=C(Nc1nn(-c2c(F)cccc2F)cc1I)c1ccccc1C(F)(F)F` [Compound I-1-257], the “log P” value is on record as 2.86. As to `Cc1nn(C)c(C)c1C(=O)Nc1ccn(-c2ccccc2C(F)(F)F)n1` [Compound I-1-185], the lipophilicity (log P) was 2.16.

In the case of `O=C(Nc1ccn(-c2cccc(Cl)c2Cl)n1)c1ccccc1Br` [Compound I-1-187], the “log P” value came to 3.41.

On to `O=C(Nc1ccn(-c2ccc(F)cn2)n1)c1ccccc1I` [Compound I-1-599], for which the “log P” value was determined as 2.78. `CC(C)(C)c1ccccc1C(=O)Nc1ccn(-c2ccccc2Cl)n1` [Compound I-1-373]: the lipophilicity (log P) is 3.85. Turning to `O=C(Nc1ccn(-c2cncc(F)n2)n1)c1ccccc1I` [Compound I-1-405], the log partition coefficient (log P) was determined as 3.28. Regarding `O=C(Nc1ccn(-c2c(F)cccc2F)n1)c1ccccc1CC(F)(F)F` [Compound I-1-610], the “log P” value is on record as 3.00. Regarding `N#Cc1c(F)cccc1-n1ccc(NC(=O)c2ccccc2Cl)n1` [Compound I-1-621], the “log P” value is given as 2.57. Turning to `O=C(Nc1ccn(-c2ncc(Cl)cc2F)n1)c1c(F)cccc1C(F)(F)F` [Compound I-1-591], the “log P” value is 2.98. In the case of `Cn1nc(C(F)F)c(C(=O)Nc2ccn(-c3ccccc3Br)n2)c1F` [Compound I-1-58], the “log P” value was 2.63. Take `O=C(Nc1cnn(-c2c(F)cccc2F)n1)c1cnccc1C(F)(F)F` [Compound I-2-83]: the “log P” value was 2.36. The same measure, in the same setting: next, `O=C(Nc1ccn(-c2cnc(Cl)cn2)n1)c1ccccc1Br` [Compound I-1-388]: 2.84; `O=C(Nc1ccn(-c2nc(F)c(F)cc2F)n1)c1ccccc1I` [Compound I-1-165]: 3.04.
